Publication PMC7024175, “In Depth Analysis of Kinase Cross Screening Data to Identify CAMKK2 Inhibitory Scaffolds” (Molecules, 2020)
Like-named read-outs stand apart in the source and are kept apart here.

Biological target: T1, CAMKK2 (Homo sapiens, UniProt Q96RR4)
T1 construct: made in house
Assay: CAMKK2 enzyme assay (radiometric, CaMKKtide)
Assay type: biochemical
Settings: for remaining activity at 0.01 µM / remaining activity at 0.1 µM / remaining activity at 1 µM: read-out: PoC (activity remaining)

[1] = 8-point full dose response, read-out: IC50

T1 sequence (Q96RR4 whole entry): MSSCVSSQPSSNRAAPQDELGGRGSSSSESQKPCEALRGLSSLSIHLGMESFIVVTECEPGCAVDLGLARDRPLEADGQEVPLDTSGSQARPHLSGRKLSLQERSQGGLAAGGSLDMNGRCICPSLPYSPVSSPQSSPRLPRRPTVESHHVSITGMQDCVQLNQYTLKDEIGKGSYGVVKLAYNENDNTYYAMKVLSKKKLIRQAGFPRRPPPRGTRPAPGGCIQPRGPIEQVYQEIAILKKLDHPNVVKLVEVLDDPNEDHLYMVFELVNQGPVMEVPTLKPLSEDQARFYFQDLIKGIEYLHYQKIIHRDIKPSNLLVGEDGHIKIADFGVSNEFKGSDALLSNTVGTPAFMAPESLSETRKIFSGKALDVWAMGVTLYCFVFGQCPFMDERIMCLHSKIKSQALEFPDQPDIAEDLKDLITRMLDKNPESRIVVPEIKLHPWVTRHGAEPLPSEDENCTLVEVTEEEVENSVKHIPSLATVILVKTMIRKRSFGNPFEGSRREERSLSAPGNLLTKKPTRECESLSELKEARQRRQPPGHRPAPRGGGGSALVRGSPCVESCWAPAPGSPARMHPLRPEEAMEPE

| remaining activity at 0.01 µM (0.01 µM inhibitor) [%] | remaining activity at 0.1 µM (0.1 µM inhibitor) [%] | remaining activity at 1 µM (1.0 µM inhibitor) [%] | PoC (activity remaining) (0.01 µM inhibitor) [%] | PoC (activity remaining) (1.0 µM inhibitor) [%] | SMILES | other results |
| --- | --- | --- | --- | --- | --- | --- |
| 97 | 87 | 42 |  |  | COc1cc(N2CCC(N3CCN(C)CC3)CC2)ccc1Nc1ncc(Cl)c(Nc2ccccc2S(=O)(=O)C(C)C)n1 [TAE684] |  |
|  |  |  |  |  | Nc1nc(Nc2ccc(S(N)(=O)=O)cc2)nn1C(=S)Nc1c(F)cccc1F [CDK 1/2 Inhibitor III] | IC50: 19 nM; remaining activity at 0.01 µM: 69%; remaining activity at 0.1 µM: 17%; remaining activity at 1 µM: 3% |
| 107 | 105 | 76 |  |  | CNC(=O)c1nn(C)c2c1C(C)(C)Cc1cnc(Nc3ccc(N4CCN(C)CC4)cc3)nc1-2 [Milciclib] |  |
| 95 | 96 | 92 |  |  | C[C@@H](Oc1cc(-n2cnc3ccc(CN4CCN(C)CC4)cc32)sc1C(N)=O)c1ccccc1C(F)(F)F [GSK461364] |  |
| 96 | 86 | 72 |  |  | O=C(Nc1nc2cccc(-c3ccc(CN4CCS(=O)(=O)CC4)cc3)n2n1)C1CC1 [Filgotinib] |  |
| 99 | 95 | 84 |  |  | CCS(=O)(=O)Nc1ccc2c(c1)/C(=C(/Nc1ccc(CN3CCCCC3)cc1)c1ccccc1)C(=O)N2 [Hesperadin] |  |
|  |  |  | 92 | 35 | O=C(NCCCNc1nc(Nc2cccc(CN3CCOCC3)c2)ncc1C1CC1)C1CCC1 [MRT67307] | PoC (activity remaining) (0.1 µM inhibitor): 86% |
| 62 | 34 | 3 |  |  | COc1cc(N2CCC(N(C)C)CC2)ccc1Nc1ncc(Cl)c(Nc2ccccc2P(C)(C)=O)n1 [ALK-IN-1] | IC50 [1]: 28 nM |
| 97 | 80 | 33 |  |  | O=C(NCCCNc1nc(Nc2cccc(NC(=O)N3CCCC3)c2)ncc1I)c1cccs1 [BX795] |  |
| 94 | 65 | 26 |  |  | CC(C)c1cc(CNc2nc(Nc3cc(C4CC4)[nH]n3)cc(N3CCN(C)CC3)n2)on1 [XL228] |  |
| 88 | 46 | 17 |  |  | COCCOc1ccc2c(c1)ncn2-c1ccc2cccc(N3CCC(N)CC3)c2n1 [CP 673451] | IC50 [1]: 73 nM |
|  |  |  |  |  | CO[C@@H]1[C@H](N(C)C(=O)c2ccccc2)C[C@H]2O[C@]1(C)n1c3ccccc3c3c4c(c5c6ccccc6n2c5c31)C(=O)NC4 [Midostaurin] | remaining activity at 0.01 µM: 97%; remaining activity at 0.1 µM: 82%; remaining activity at 1 µM: 38% |
|  |  |  | 102 | 89 | O=C1Nc2cc(Br)ccc2/C1=C1/Nc2ccccc2/C1=N\O [BIO] | PoC (activity remaining) (0.1 µM inhibitor): 100% |
|  |  |  | 103 | 26 | COc1cc(N2CCC(N)CC2)ccc1Nc1ncc(Cl)c(-c2c[nH]c3ccccc23)n1 [AZD 3463] | PoC (activity remaining) (0.1 µM inhibitor): 74%; IC50 [1]: 185 nM |
| 100 | 80 | 22 |  |  | CC(C)[C@H](CO)Nc1nc(Nc2cc(N)cc(Cl)c2)c2ncn(C(C)C)c2n1 [Aminopurvalanol] |  |
|  |  |  |  |  | C[C@]12O[C@H](C[C@]1(O)CO)n1c3ccccc3c3c4c(c5c6ccccc6n2c5c31)CNC4=O [Lestaurtinib] | remaining activity at 0.01 µM: 64%; remaining activity at 0.1 µM: 33%; remaining activity at 1 µM: 3% |
|  |  |  | 96 | 93 | COc1cc(N2CCOCC2)ccc1Nc1ncc(F)c(Nc2ccccc2NS(C)(=O)=O)n1 [CZC 25146] | PoC (activity remaining) (0.1 µM inhibitor): 101% |
| 96 | 78 | 31 |  |  | C1=C/COCc2cc(ccc2OCCN2CCCC2)Nc2nccc(n2)-c2cccc(c2)COC/1 [Pacritinib] |  |
|  |  |  | 95 | 81 | CNC(=O)c1cc(Oc2ccc(NC(=O)Nc3cc(C(C)(C)C)nn3-c3ccc4ncccc4c3)c(F)c2)ccn1 [Rebasitinib] | PoC (activity remaining) (0.1 µM inhibitor): 93% |
| 95 | 86 | 71 |  |  | CN(C)S(=O)(=O)c1ccc2c(c1)/C(=C/c1cc3c([nH]1)CCCC3)C(=O)N2 [SU6656] |  |
|  |  |  | 100 | 26 | O=C(Nc1cccc(Nc2ncc(Br)c(NCCc3cnc[nH]3)n2)c1)N1CCCC1 [BX912] | PoC (activity remaining) (0.1 µM inhibitor): 90% |
| 101 | 99 | 99 |  |  | C=CCn1c(=O)c2cnc(Nc3ccc(N4CCN(C)CC4)cc3)nc2n1-c1cccc(C(C)(C)O)n1 [MK1775] |  |

| remaining activity at 0.01 µM (0.01 µM inhibitor) [%] | remaining activity at 0.1 µM (0.1 µM inhibitor) [%] | remaining activity at 1 µM (1.0 µM inhibitor) [%] | PoC (activity remaining) (0.01 µM inhibitor) [%] | PoC (activity remaining) (1.0 µM inhibitor) [%] | SMILES | other results |
| --- | --- | --- | --- | --- | --- | --- |
| 95 | 78 | 71 |  |  | Cc1nc(Nc2[nH]nc3c2CN(C(=O)N[C@H](CN(C)C)c2ccccc2)C3(C)C)c2sccc2n1 [PF3758309] |  |
| 100 | 96 | 58 |  |  | c1cc(-c2cnn3cc(-c4ccc(OCCN5CCCCC5)cc4)cnc23)ccn1 [Dorsomorphin] |  |
|  |  |  | 94 | 88 | O=C1NC(=NCc2cccs2)S/C1=C\c1ccc2ncccc2c1 [Ro 3306] | PoC (activity remaining) (0.1 µM inhibitor): 94% |
| 98 | 101 | 96 |  |  | Cc1c[nH]c(-c2cnc(NCCNc3ccc(C#N)cn3)nc2-c2ccc(Cl)cc2Cl)n1 [CHIR99021] |  |
| 84 | 74 | 18 |  |  | CCc1nc(C(N)=O)c(Nc2ccc(N3CCC(N4CCN(C)CC4)CC3)c(OC)c2)nc1NC1CCOCC1 [Gilteritinib] | IC50 [1]: 204 nM |
| 104 | 94 | 75 |  |  | CC[C@@H]1C(=O)N(C)c2cnc(Nc3ccc(C(=O)N[C@H]4CC[C@H](N5CCN(CC6CC6)CC5)CC4)cc3OC)nc2N1C(C)C [BI6727] |  |
| 109 | 93 | 67 |  |  | Cc1[nH]c(/C=C2\C(=O)Nc3ccc(S(=O)(=O)Cc4c(Cl)cccc4Cl)cc32)c(C)c1C(=O)N1CCC[C@@H]1CN1CCCC1 [PHA665752] |  |
| 102 | 62 | 29 |  |  | CN1CC[C@H](c2c(O)cc(O)c3c(=O)cc(-c4ccccc4Cl)oc23)[C@H](O)C1 [Alvocidib] |  |
| 92 | 81 | 34 |  |  | O=C1NC(=O)/C(=C/c2ccc3nccc(-c4ccncc4)c3c2)S1 [GSK1059615] |  |
| 100 | 99 | 96 |  |  | CCN1CCN(c2ccc(Nc3cc(N(C)C(=O)Nc4c(Cl)c(OC)cc(OC)c4Cl)ncn3)cc2)CC1 [BGJ 398] |  |
| 84 | 49 | 0 |  |  | CC(=O)c1cnc2ccc(-c3cc(Cl)c(O)c(Cl)c3)nc2c1N[C@H]1CC[C@H](CN(C)C)CC1 [OTSSP167] | IC50 [1]: 86 nM |
| 96 | 84 | 42 |  |  | O=C(c1ccc(/C=C/c2n[nH]c3ccccc23)cc1)N1CCNCC1 [KW2449] |  |
|  |  |  |  |  | COc1cc(N2CCC(N3CCN(C)CC3)CC2)ccc1Nc1ncc(Cl)c(Nc2ccccc2P(C)(C)=O)n1 [AP26113] | remaining activity at 0.01 µM: 60%; remaining activity at 0.1 µM: 20%; remaining activity at 1 µM: 2% |
|  |  |  | 68 | 50 | c1ccc2c(-c3cnn4cc(-c5ccc(N6CCNCC6)cc5)cnc34)ccnc2c1 [LDN 193189] | PoC (activity remaining) (0.1 µM inhibitor): 62%; IC50 [1]: 146 nM |
|  |  |  | 104 | 90 | CNC(=O)c1ccccc1Nc1nc(Nc2ccc(N3CCOCC3)cc2OC)ncc1Cl [TAE226] | PoC (activity remaining) (0.1 µM inhibitor): 97% |
| 118 | 92 | 47 |  |  | CC1(COc2ccc3c(c2)ncn3-c2ccc3cccc(N4CCC(N)CC4)c3n2)COC1 [Crenolanib] |  |
| 101 | 100 | 100 |  |  | Cc1cc2c(F)c(Oc3ncnn4cc(OC[C@@H](C)O)c(C)c34)ccc2[nH]1 [Brivanib] |  |
|  |  |  | 92 | 20 | CC(=O)NCC(=O)N1[C@@H]2CC[C@H]1c1ccc(Nc3ncc(C(F)(F)F)c(NC4CCC4)n3)cc12 [PF03814735] | PoC (activity remaining) (0.1 µM inhibitor): 70%; IC50 [1]: 227 nM |
| 97 | 92 | 80 |  |  | Cn1c2ccccc2c2c3c(c4c5ccccc5n(CCC#N)c4c21)CNC3=O [Go6976] |  |
|  |  |  | 92 | 82 | N#Cc1c(Oc2ccc(F)c(NC(=O)Cc3cccc(C(F)(F)F)c3)c2)ccc2nc(NC(=O)C3CC3)sc12 [TAK632] | PoC (activity remaining) (0.1 µM inhibitor): 87% |
|  |  |  | 99 | 86 | Cc1ncc(CCCN(C)C)cc1Nc1ncc2c(n1)-c1ccc(C(F)(F)F)cc1NC(=S)C2 [MLN 0905] | PoC (activity remaining) (0.1 µM inhibitor): 95% |
| 100 | 84 | 60 |  |  | CCOc1cc2ncc(C#N)c(Nc3ccc(F)c(Cl)c3)c2cc1NC(=O)/C=C/CN(C)C [Pelitinib] |  |

| SMILES | remaining activity at 0.01 µM (0.01 µM inhibitor) [%] | remaining activity at 0.1 µM (0.1 µM inhibitor) [%] | remaining activity at 1 µM (1.0 µM inhibitor) [%] | PoC (activity remaining) (0.01 µM inhibitor) [%] | PoC (activity remaining) (1.0 µM inhibitor) [%] | other results |
| --- | --- | --- | --- | --- | --- | --- |
| COC(=O)[C@@]1(O)C[C@H]2O[C@]1(C)n1c3ccccc3c3c4c(c5c6ccccc6n2c5c31)C(=O)NC4 [K252a] |  |  |  | 99 | 31 |  |
| Cn1cc(C2=C(c3cn(CCCSC(=N)N)c4ccccc34)C(=O)NC2=O)c2ccccc21 [Ro 31-8220] |  |  |  | 100 | 85 | PoC (activity remaining) (0.1 µM inhibitor): 100% |
| O=C1NC(=O)c2c1c1c3ccccc3n3c1c1c2c2ccccc2n1C1CCC3O1 [SB 218078] |  |  |  | 98 | 64 | PoC (activity remaining) (0.1 µM inhibitor): 86% |
